How the values were obtained:
[1] = Pharmacokinetic evaluation in rat, single oral dose; assay type: in vivo
Procedure: In brief, single oral dose (10 mg/kg) of 2-1 and 3-1 in 10% PEG in 0.25% methylcellulose in milli Q water was administered to rats (3 rats/dose) for a pharmacokinetic evaluation. Serial sampling was used to collect blood samples, which were taken from each treated animal at nine time points ranging from pre-dose to 24 hours post dose (0, 0.25, 0.5, 1, 2, 4, 6, 8 and 24 hours) for the oral administration. Plasma samples were stored at −80° C. or below until analysis.
Plasma samples were thawed on ice, and 50 μL of plasma was transferred to a 96-well plate. Plasma proteins were precipitated by addition of pre-chilled 150 μL acetonitrile (ACN) containing 75 ng/mL internal standard. Additional 50 μL of ACN/water (60:40) was added into each sample. Calibration curve samples were prepared by a serial dilution in ACN/water (60:40). Fifty microliter of each standard sample was transferred to a 96-well plate followed by adding 150 μL acetonitrile (ACN) containing 75 ng/mL internal standard and 50 μL blank rat plasma. The plates were capped, mixed and centrifuged at 3000 rpm for 20 min. The supernatant was collected and injected into a LC-MS/MS system for quantification. […] of QC samples (4, 40, 400, 800 ng/ml) for 3-1,2-1 and 1d.1 were used as quality control for the studies needed and prepared in a same way as the standards. Quantification was performed by fitting peak area ratios to a weighted (1/x^2) linear calibration curve.
(§1) Descriptive pharmacokinetics were derived and evaluated based on the plasma concentrations of 3-1, 2-1 and 1d.1 from each individual […]. Pharmacokinetic parameters were determined using Non-Compartmental Analysis of the plasma concentration-time profiles of 3-1, 2-1 and 1d.1 in WinNonlin pharmacokinetic modeling software Professional Version 5.0.1 program (Pharsight Corporation, Mountain View, Calif.).

[2] = target: T1, VMAT2 (Rattus norvegicus, UniProt Q01827); assay: VMAT2 competition binding assay ([3H]-dihydrotetrabenazine); details: mean±SD, n in brackets; at least two independent experiments; read-out: pKi (n), VMAT2 affinity from competition binding studies (converted)
T1 construct: on rat forebrain homegenate (100 μg membrane protein per well); from tissue; host or cells: rat striatum (Procedure A, vesicles) or Sprague-Dawley rat forebrain homogenate (Procedure B)
T1 sequence (Q01827 whole entry): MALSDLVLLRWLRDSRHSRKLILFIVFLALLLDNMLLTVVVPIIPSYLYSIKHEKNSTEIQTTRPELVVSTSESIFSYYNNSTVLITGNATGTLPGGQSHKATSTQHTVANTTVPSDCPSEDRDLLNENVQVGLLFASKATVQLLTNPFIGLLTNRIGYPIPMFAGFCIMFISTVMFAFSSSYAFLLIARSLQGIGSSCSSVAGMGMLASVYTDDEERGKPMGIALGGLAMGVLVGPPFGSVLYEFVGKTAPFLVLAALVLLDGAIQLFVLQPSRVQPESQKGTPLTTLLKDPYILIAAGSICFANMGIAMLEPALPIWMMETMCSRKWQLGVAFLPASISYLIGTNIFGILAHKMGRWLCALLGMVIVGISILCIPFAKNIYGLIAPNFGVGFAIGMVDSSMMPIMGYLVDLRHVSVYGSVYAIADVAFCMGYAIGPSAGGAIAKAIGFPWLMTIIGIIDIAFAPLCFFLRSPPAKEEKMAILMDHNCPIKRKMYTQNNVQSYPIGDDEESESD
Procedure: Preparation of Rat Striatal Vesicles
Rat striata from three rats are pooled and homogenized in 0.32 M sucrose. The homogenate is then centrifuged at 2,000×g for 10 min at 4° C. and the resulting supernatant is centrifuged at 10,000×g for 30 min at 4° C. The resulting pellet containing the enriched synaptosomal fraction (2 mL) is subjected to osmotic shock by addition of 7 mL of distilled H2O, and subsequently the suspension is homogenized. The osmolarity is restored by the addition of 0.9 mL of 0.25 M HEPES and 0.9 mL of 1.0 M neutral L-(+)-tartaric acid dipotassium salt buffer (pH 7.5), followed by a 20 min centrifugation (20,000×g at 4° C.). […]
Aliquots of the vesicle suspension (0.16 mL, 15 μg of protein/mL) are incubated with competitor compounds (ranging from 1E-6M to 1E-12M) and 2 nM [^3H]-dihydrotetrabenazine (HTBZ; specific activity: 20 Ci/mmol, American Radiolabeled Chemicals, Inc) for 1 h at room temperature in a total volume of 0.5 mL. […] Nonspecific binding is determined using 20 μM tetrabenazine (TBZ). […] Bound radioactivity is determined by scintillation spectrometry.
Following incubation at 25° C. for two hours, bound radioligand was collected by rapid filtration onto GF/B glass fiber filters using a Unifilter-96 Harvester (PerkinElmer). […] Bound radioligand was quantified by scintillation counting using a Topcount NXT (PerkinElmer). […]

[3] = tested on: panel of 80 receptors, ion channels and transporters; assay: Receptor selectivity binding assays (Cerep high-throughput profile); details: versus the dopamine receptors tested
Procedure: (§2) The four HTBZ stereoisomers and compounds of the present invention were tested for receptor specificity by screening against a panel of 80 receptors, ion channels and transporters (High-throughput profile, Cerep, S. A.).

[4] = target: T2, Dopamine D2S receptor (Homo sapiens, UniProt P14416); assay: Dopamine D2S receptor competition binding ([3H]spiperone); details: for inhibition at 10 µM: read-out: D2S (h) % inhibition at 10 uM
T2 construct: expressed in transfected cells; host or cells: CHO cells
T2 sequence (P14416 1-414 isoform P14416-2): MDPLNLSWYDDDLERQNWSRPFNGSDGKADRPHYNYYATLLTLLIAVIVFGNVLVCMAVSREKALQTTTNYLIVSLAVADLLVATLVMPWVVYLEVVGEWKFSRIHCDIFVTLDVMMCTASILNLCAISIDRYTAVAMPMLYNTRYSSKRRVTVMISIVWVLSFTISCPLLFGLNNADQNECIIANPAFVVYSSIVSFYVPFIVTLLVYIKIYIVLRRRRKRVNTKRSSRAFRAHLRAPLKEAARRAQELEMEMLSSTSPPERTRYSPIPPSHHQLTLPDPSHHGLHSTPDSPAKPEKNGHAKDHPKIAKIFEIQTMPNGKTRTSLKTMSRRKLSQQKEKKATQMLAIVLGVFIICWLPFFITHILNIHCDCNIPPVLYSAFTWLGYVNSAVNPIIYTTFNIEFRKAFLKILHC
Procedure: as §2
(a) Dopamine D2S receptor:
Reference: Grandy et al., (1989) Proc. Natl. Acad. Sci. USA 86: 9762-6
(§3) Source: Human recombinant (CHO cells)
Ligand: [3H]spiperone, 1.0 nM
Incubation time/temperature: 90 min/25° C.
Incubation buffer: 50 mM HEPES, 100 mM NaCl, 1 mM EDTA, 3 mM MgCl2, pH 7.4
Non-specific ligand: clozapine (10 μM)
Specific binding: 600 cpm
(§4) Quantitation method: Scintillation counting

[5] = tested on: human hepatocytes; assay: Stability of compounds in human hepatocytes; assay type: in vitro ADME; details: 1 μM, 0-60 min, FIGS. 1a-1c
Procedure: Cryopreserved human hepatocytes from 12 individual donors were thawed according to the supplier's instruction and pooled. Cell viability was determined to be more than 85%. TBZ (1 μM) was incubated with individual human hepatocytes (1×10^6 cells/mL) at 37° C. with 95% O2 and 5% CO2 for 0, 5, 15, 30 and 60 min. TBZ in DMSO was added to achieve 1.0 μM (DMSO was less than 0.5% v/v). All concentrations and cell contents were relative to the final incubation volume of 100 μL. The incubation was terminated by mixing 100 μL of ice-cold acetonitrile in 1% formic acid containing dextromethorphan (1.0 μM) as internal standard for LC/MS analysis. Precipitated proteins were removed by centrifugation (1500-2500×g for 30 min at 15° C.).
Briefly, samples were separated with a gradient HPLC method by Acquity HPLC systems consisting of a pump, a column heater (40° C.), and a vacuum degasser/mobile phase tray. Mobile phase A was water in 0.1% formic acid and mobile phase B was acetonitrile in 0.1% formic acid. The gradient elution was as follows: mobile phase B: 0-10% at 0-0.75 min, 40-90% at 1.25-1.5 min, 90-0% at 1.75-2.0 min, and run time was 3 min. The reverse phase column was a BEH C18 column (50×2.1 mm, 1.7 μm). Flow rate was 0.8 mL/min and injection volume was 7.5 μL. The samples were monitored with API-3000 mass spectrometer and ESI ion source in positive mode, TBZ m/z 318.4>220.4, HTBZ m/z 320.3>302.3, and dextromethorphan m/z 272.2>147.2.

[6] = target: T3, Dopamine D4.4 receptor (Homo sapiens, UniProt P21917); assay: Dopamine D4.4 receptor competition binding ([3H]spiperone); details: for inhibition at 10 µM: read-out: D4.4 (h) % inhibition at 10 uM; for inhibition at 1 µM: read-out: D4.4 (h) % inhibition at 1 uM
T3 construct: expressed in transfected cells; host or cells: CHO cells
T3 sequence (P21917 1-419): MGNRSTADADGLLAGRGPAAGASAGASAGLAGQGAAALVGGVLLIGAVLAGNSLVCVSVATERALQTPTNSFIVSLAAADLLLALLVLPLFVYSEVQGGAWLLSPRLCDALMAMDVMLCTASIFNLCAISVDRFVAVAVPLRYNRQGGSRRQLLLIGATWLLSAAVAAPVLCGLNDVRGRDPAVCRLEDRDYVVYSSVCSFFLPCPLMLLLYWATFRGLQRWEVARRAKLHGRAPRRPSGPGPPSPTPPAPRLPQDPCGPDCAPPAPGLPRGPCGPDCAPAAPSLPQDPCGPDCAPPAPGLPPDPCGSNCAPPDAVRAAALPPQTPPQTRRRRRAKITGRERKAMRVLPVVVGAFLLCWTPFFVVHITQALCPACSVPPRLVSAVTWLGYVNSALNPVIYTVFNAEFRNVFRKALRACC
Procedure: as §2
(b) Dopamine D4.4 receptor:
as §3
Ligand: [3H]spiperone, 0.3 nM
Incubation time/temperature: 60 min./22° C.
Non-specific ligand: (+)butaclamol (10 μM)
as §4

[7] = humans, background statement; cited from earlier work
[8] = Stability in dog liver microsomes; assay type: in vitro ADME; details: 1 μM, 0-60 min, FIGS. 2a-2f
[9] = Stability in rat liver microsomes; assay type: in vitro ADME; details: 1 μM, 0-60 min, FIGS. 2a-2f
[10] = Stability in human liver microsomes; assay type: in vitro ADME; details: 1 μM, 0-60 min, FIGS. 2a-2f
Procedure: Briefly, pooled human liver microsomes (0.1 or 0.5 mg/mL; n>10; mixed gender) were incubated at 37° C. with the test compound in the presence of an NADPH-generating system containing 50 mM, pH 7.4 potassium phosphate buffer, 3 mM magnesium chloride, 1 mM EDTA, 1 mM NADP, 5 mM G-6-P, and 1 Unit/mL G-6-PD.
Incubations were conducted in six modified 2.0-mL, 96-well, deep-well plates in 1 μM of each compound (0.01% DMSO) with a total volume of 250 μl. Each plate, representing a single time point, contained 96 Titertube® Micro Tubes allowing for duplicates of 48 compounds at each time point (0, 5, 10, 20, 40, and 60 minutes). Reaction was stopped by the addition of an appropriate stop reagent (0.3 mL of acetonitrile containing a proprietary internal standard). Precipitated proteins were removed by centrifugation for 15 min at 3000 rpm, and the supernatant fluid (˜0.1 mL) was analyzed by LC/MS for the % of parent compound remaining.
Samples were separated with a gradient HPLC method by Agilent LC systems consisting of a pump, a column heater (40° C.), and a vacuum degasser/mobile phase tray. Mobile phase A was water in 0.1% formic acid and mobile phase B was acetonitrile in 0.1% formic acid. […] The samples were monitored with API-3000 mass spectrometer and ESI ion source in positive mode, TBZ m/z 318.4>220.4, HTBZ m/z 320.3>302.3, and dextromethorphan m/z 272.2>147.2.

[11] = Pharmacokinetic evaluation in dog, single oral dose; assay type: in vivo; details: oral 10 mg/kg (2-1), FIGS. 3c-3d
Procedure: In brief, a single oral dose (6.1 mg/kg for 3-1 and 10 mg/kg for 2-1) in 10% PEG in 0.25% methylcellulose in milli Q water was administered to dogs (3 dogs/dose) for a pharmacokinetic evaluation. Serial sampling was used to collect blood samples, which were taken from each treated animal at nine time points ranging from pre-dose to 24 hours post dose ([…]) for the oral administration. Plasma samples were stored at −80° C. or below until analysis.
Plasma samples were thawed on ice, and 50 μL of plasma was transferred to a 96-well plate. Plasma proteins were precipitated by addition of pre-chilled 150 μL acetonitrile (ACN) containing 75 ng/mL internal standard. Additional 50 μL of ACN/water (60:40) was added into each sample. […] The supernatant was collected and injected into a LC-MS/MS system for quantification. […] Quantification was performed by fitting peak area ratios to a weighted (1/x^2) linear calibration curve.
as §1

## CCOC(=O)O[C@@H]1C[C@@H]2c3cc(OC)c(OC)cc3CCN2C[C@H]1CC(C)C [Compound 3-1, Carbonic acid ethyl ester (2R,3R,11bR)-3-isobutyl-9,10-dimethoxy-1,3,4,6,7,11b-hexahydro-2H-pyrido[2,1-a]isoquinolin-2-yl ester]
[1]; oral 10 mg/kg, limit of quantification 1 ng/mL
  parent compound in rat plasma after oral administration: No 3-1 was detected
[1]; oral, FIG. 3a
  rat plasma concentration time profile of 1d.1 from 3-1 compared with 1d.1 administered orally: indistinguishable
[2]
  Ki: 12.6 nM
[3]
  selectivity for VMAT2 (in words): demonstrated selectivity for VMAT2
[4]
  inhibition at 10 µM: 15%
[5]
  conversion in human hepatocytes to HTBZ (tetrabenazine) or to 1d.1 (compounds 2-1, 3-1): rapid
[6]
  inhibition at 10 µM: 15%

## COc1cc2c(cc1OC)C1CC(=O)C(CC(C)C)CN1CC2 (racemic) [Tetrabenazine, 3-Isobutyl-9,10-dimethoxy-1,3,4,6,7,11b-hexahydro-2H-pyrido[2,1-a]isoquinolin-2-one, reference compound]
[5]
  conversion in human hepatocytes to HTBZ (tetrabenazine) or to 1d.1 (compounds 2-1, 3-1): rapid
[7]
  bioavailability: fairly low and variable

## COc1cc2c(cc1OC)[C@@H]1C[C@H](O)[C@@H](CC(C)C)CN1CC2 [2S, 3S, 11bS-HTBZ]
[4]
  Ki: 192 nM
  binding/inhibition at D2(S) (in words): high affinity binding
[6]
  inhibition at 1 µM: 9%

## COc1cc2c(cc1OC)[C@@H]1C[C@@H](O)[C@@H](CC(C)C)CN1CC2 [2R, 3S, 11bS-HTBZ]
[4]
  Ki: 57 nM
  binding/inhibition at D2(S) (in words): high affinity binding
[6]
  Ki: 67 nM

## COc1cc2c(cc1OC)[C@H]1C[C@@H](O)[C@H](CC(C)C)CN1CC2 [2R, 3R, 11bR-HTBZ, (2R,3R,11bR)-3-isobutyl-9,10-dimethoxy-1,3,4,6,7,11b-hexahydro-2H-pyrido[2,1-a]isoquinolin-2-ol]
[4]
  inhibition at 10 µM: -6%
[6]
  inhibition at 1 µM: 0%

## COc1cc2c(cc1OC)[C@H]1C[C@H](O)[C@H](CC(C)C)CN1CC2 [2S, 3R, 11bR-HTBZ, (2S,3R,11bR)-3-isobutyl-9,10-dimethoxy-1,3,4,6,7,11b-hexahydro-2H-pyrido[2,1-a]isoquinolin-2-ol]
[4]
  binding/inhibition at D2(S) (in words): some minor inhibition
[4]; read-out: D2S (h) % inhibition at 30 uM
  inhibition at 30 µM: 17%
[6]
  inhibition at dopamine D4.4 receptor (in words): some minor inhibition
  inhibition at 10 µM: 30%

## COc1cc2c(cc1OC)[C@H]1C[C@@H](OC(=O)[C@@H](N)C(C)C)[C@H](CC(C)C)CN1CC2 [Compound 2-1, (S)-2-Amino-3-methyl-butyric acid (2R,3R,11bR)-3-isobutyl-9,10-dimethoxy-1,3,4,6,7,11b-hexahydro-2H-pyrido[2,1-a]isoquinolin-2-yl ester]
[1]; oral 10 mg/kg, FIGS. 3a-3b
  plasma half-life of 1d.1 upon oral administration of compound 2-1 relative to compound 3-1: 2-3 times
[8]
  conversion to 1d.1 in dog liver microsomes, compared with compound 3-1: slower
[2]
  Ki: 200 nM
[3]
  selectivity for VMAT2 (in words): demonstrated selectivity for VMAT2
[9]
  conversion to 1d.1 in rat liver microsomes, compared with compound 3-1: slower
[10]
  conversion to 1d.1 in human liver microsomes, compared with compound 3-1: slower
[4]
  inhibition at 10 µM: 2%
[11]
  plasma half-life of 1d.1 upon oral administration of compound 2-1 relative to compound 3-1: 2-3 times
[5]
  conversion in human hepatocytes to HTBZ (tetrabenazine) or to 1d.1 (compounds 2-1, 3-1): comparatively slow
[6]
  inhibition at 10 µM: 13%
